# Values joined by “and” are separate entries in the source; they are usually repeats but may differ in a detail not shown here. Equal values may be shown once. Read-outs that look alike come from different tables or passages of the source.
# Key:
# [1] = tested on: rabbit corporal smooth muscle (CSM) strip; experiment: Organ bath relaxation of phenylephrine-pre-contracted rabbit corpus cavernosal strips; parameters: species or system New Zealand white rabbits; settings: for relaxation, % of the phenylephrine (PE)-induced contraction: concentration-response; for % relaxation of the phenylephrine-induced contraction: synergy experiment
# Description: Sexually mature male New Zealand white rabbits (3.0±0.3 kg) were killed with an air embolism in the ear vein. The entire penis was then surgically excised, and then cleaned by removing the […] and urethra. Then, the corporal tissue was carefully dissected from the surrounding tunica. Four corpus cavernosal strips with approximately equal sizes (2×2×10 mm) were obtained from each penis.
# Rabbit corpus cavernosal strips were separately prepared for organ-bath studies. Each corporal strip was mounted in a 10 ml-organ chamber filled with Krebs buffer (composition in mmol/l: 118.4 NaCl, 4.7 KCl, 2.5 CaCl2, 1.2 KH2PO4, 1.2 MgSO4, 24.9 NaHCO3, and 11.1 D-glucose), with one end fixed to a tissue holder and the other secured to a force transducer. The force transducer was connected to an appropriately calibrated four-channel polygraph (Power-Lab; AD Instruments, Sydney, NSW, Australia), in which the transducer output was recorded. The corpus cavernosal strips were kept in the organ bath with Krebs solution maintained at 36.5° C. by a thermo-regulated water circuit and by continuously bubbling with a mixture of 95% O2 and 5% CO2. Each corporal strip was stretched to an optimal isometric tension of 1.0 g and was equilibrated for 60 min. During the equilibration, the tissues were washed with fresh Krebs solution every 15 min, and the tension was adjusted if necessary.
# The vasodilatory effect of LDD175 was studied by cumulative addition of the sample at concentrations ranging from 10^−7 to 10^−4 M to endothelium-intact strips and endothelium-denuded strips after pre-contraction with 10^−5 M phenylephrine (PE). The endothelial lining of the corpus cavernosum was removed by rubbing the strip between the thumb and index finger for 20 seconds and soaking the same in 0.3% solution of 3[(3-cholamidopropyl)-dimethylammonio]-l-propanesulphonate (CHAPS) for 10 seconds. It was confirmed whether the endothelium was functionally completely removed for all strips by pre-contracting the strips with 10^−5 M […] PE and then adding acetylcholine (10^−6 M) thereto. […] After the addition of IbTX, LDD175 was added to strips pre-contracted with PE. The relaxation effect of the PDE5 inhibitor (udenafil, 10^−6 and 10^−5 M) was also separately measured in the same manner, and compared to that of LDD175. The synergistic relaxation effect between 10^−5 M LDD175 and 10^−6 M udenafil was also investigated.
# [2] = tested on: erectile function of rats; experiment: In vivo cavernous nerve stimulation model, erectile response; parameters: species or system Sprague-Dawley rats
# Procedure: (§1) The erectile response was measured using Sprague-Dawley rats. The detailed methodology of measuring the erectile response has been described previously (Rehman et al., 1997). The 8-10 wk aged rats were anesthetized with intramuscular injection of Zoletil 100 mg/kg (Virbac, Carros, France), and placed on a thermally regulated surgical table. Systemic arterial blood pressure (ABP) was monitored via carotid artery cannulation (polyethylene-50 tubing). The prostate and bladder were exposed through a midline abdominal incision. The major pelvic ganglion, pelvic nerves, and cavernous nerve were identified as posterolateral to the prostate on each side. An electric stimulator with stainless steel bipolar hook electrodes was placed around the cavernous nerve for electrical stimulation. To monitor intracavernosal pressure (ICP), a 25-gauge cannula was filled with […], connected to polyethylene-50 tubing, and inserted into one side of the crura. Systemic arterial blood pressure (ABP) and intracavernosal pressure (ICP) were measured with a transducer connected to a PowerLab® (AD Instruments, Colorado Spring, Colo., USA), which is a computerized system for data acquisition. Real-time display and documentation of pressure were conducted with Chart™ 6 software. Sub-maximal electrical field stimulation (EFS) was used with 1 V, 2 Hz, 5 ms pulse width, and duration of 60 seconds. Sub-maximal electrical field stimulation was applied 10 min after a series of control (buffer solution alone), LDD175 (10 mg/kg), and udenafil (1 mg/kg) injections. At the end of sub-maximal stimulation, the full response was measured using the EFS of 6 V, 10 Hz, 5 ms pulse width, with duration of 60 seconds. Buffer solution, LDD175, and udenafil were administered at intervals of 30 min. The ratio of maximal ICP to mean arterial BP at the peak of the erectile response was calculated in order to control for variations in ABP.
# [3] = tested on: rat model with diabetic erectile dysfunction; experiment: Diabetic erectile dysfunction rat model (streptozotocin), intracavernosal pressure; format: in vivo, Sprague-Dawley rats; settings: for maximal ICP/ABP ratio: 5 V
# Procedure: as §1
# The 8-wk aged male Sprague-Dawley rats were administered with an intraperitoneal injection of streptozotocin (65 mg/kg body weight) dissolved in 5 mM citric acid buffer (pH 4.5), thereby inducing insulin dependent diabetes mellitus (IDDM). Rats of the normal control were injected with only 5 mM citric acid buffer (pH 4.5) by the same method. On day 2 of breeding, the rats were fasted for 16 hours, and the blood was collected from the tail vein to conduct the blood glucose test. Only rats with a blood glucose level of 250 mg/de or higher were selected for a diabetes induced group.
# [4] = tested on: aortic rings of rats; settings: cited from earlier work
# [5] = biological target: T1, BKCa channel (Homo sapiens, UniProt Q12791); experiment: Whole-cell patch-clamp recording of BKCa currents in cultured human CSM cells; format: cell-based; settings: for activation of outward rectifying K+ currents (whole-cell), increase vs. control: at +60 mV
# T1 construct: Homogeneous explant cell cultures of human corporal smooth muscle (CSM) cells were prepared; endogenous in cells; host or cells: primary explant cultures of human corporal smooth muscle (CSM) cells from erectile dysfunction patients
# Procedure: Human corporal tissues were obtained from the corpus cavernosa of patients with organic erectile dysfunction undergoing implantation of penile prostheses. Homogeneous explant cell cultures of human corporal smooth muscle (CSM) cells were prepared as follows (Palmer et al., 1994; Sung et al., 2011). Radial sections of approximately 3×3×10 mm were excised from the mid-penile shafts of the respective resected sample. These samples were tissues including smooth muscles, endothelium, and connective tissues, with occasional nerve fibers. The tissues were washed, cut into 1-2 mm pieces, and placed in tissue culture dishes filled with Dulbecco's modified Eagle's medium (DMEM, Gibco, Carlsbad, Calif., USA) supplemented with 10% fetal bovine serum and antibiotics (100 units/mL penicillin, streptomycin; Gibco), under 5% O2 and 5% CO2. After the explants were attached to the substrate (usually 1-2 days), additional medium was added. The smooth muscle cells were observed migrating from the explants, and underwent division. The cells were subsequently detached via a trypsin/EDTA protocol to establish secondary cultures from the explants. These cultures were morphologically homogeneous. The cobblestone morphology, which is the characteristic of endothelial cells, and the flattened and spread-out shape, which is the characteristic of fibroblasts, were not observed. Cellular homogeneity was further verified by observing smooth muscle-specific α-actin and myosin immuno-responsiveness. While the cultures were maintained for four or more passages, all measured pharmacological and molecular properties were evaluated in the intact tissues that were maintained in the cultures, for example, cyclic adenosine monophosphate formation (Palmer et al., 1994), calcium mobilization (Zhao and Christ, 1995), expression or function of the gap junction protein, connexin (Brink et al., 1996), and K+ channel activity (Lee et al., 1999).
# The Ca^2+-activated potassium channel (BKCa) was measured by using the conventional whole-cell patch-clamp technique (Sung et al., 2011). Patch electrodes were made from borosilicate glass capillary tubing (World Precision Instruments, Sarasota, Fla., USA), and had 2.5-5 MO resistance. The cell suspension was placed into a small chamber (0.6 ml) on the stage of an inverted microscope (TMD Diaphot, Nikon, Tokyo, Japan). The membrane currents in smooth muscle cells were recorded using a patch clamp amplifier (Axopatch-1 D, Axon Instruments, Foster City, Calif., USA). The liquid junction potential between the pipette solution and the bath solution was only about 3 mV, and thus uncorrected. In each experiment, whole-cell configuration was not achieved until the seal resistance became larger than 5 GO. The pCLAMP software (Axon Instruments) and Digidata-1322A (Axon Instruments) were used for data acquisition and application of command pulses. Membrane currents were measured during ramping, and filtered at 5 kHz (−3 dB frequency). The current signals were filtered at 5 kHz, digitized, and analyzed on a personal computer using pCLAMP and Origin software (Microcal Software, Northampton, Mass., USA). The standard bath solution was prepared to contain 135 mmol NaCl, 5 mmol KCl, 10 mmol HEPES, 1.8 mmol CaCl2, 1 mmol MgCl2, and 5 mmol glucose, per liter, at pH 7.4 adjusted with NaOH. The pipette (internal) solution was prepared to contain, per liter, 140 mmol KCl, 10 mmol HEPES, 5 mmol K2ATP, 2 mmol MgCl2, 5 mmol ethyleneglycol-bis-[2-aminoethyl ether]-N,N′-tetraacetic acid (EGTA), and 0.5 mmol GTP, at pH 7.2 adjusted with KOH. The Ca^2+-free concentration in the pipette solution was adjusted to 3.15 nM by adding an appropriate amount of CaCl2, determined using the Max Chelator Sliders software (C. Patton, Stanford University).
# [6] = tested on: BP and heart rate; settings: cited from earlier work
# [7] = sub-maximal EFS, intravenous LDD175 10 mg/kg, n=8
# T1 sequence (Q12791 whole entry): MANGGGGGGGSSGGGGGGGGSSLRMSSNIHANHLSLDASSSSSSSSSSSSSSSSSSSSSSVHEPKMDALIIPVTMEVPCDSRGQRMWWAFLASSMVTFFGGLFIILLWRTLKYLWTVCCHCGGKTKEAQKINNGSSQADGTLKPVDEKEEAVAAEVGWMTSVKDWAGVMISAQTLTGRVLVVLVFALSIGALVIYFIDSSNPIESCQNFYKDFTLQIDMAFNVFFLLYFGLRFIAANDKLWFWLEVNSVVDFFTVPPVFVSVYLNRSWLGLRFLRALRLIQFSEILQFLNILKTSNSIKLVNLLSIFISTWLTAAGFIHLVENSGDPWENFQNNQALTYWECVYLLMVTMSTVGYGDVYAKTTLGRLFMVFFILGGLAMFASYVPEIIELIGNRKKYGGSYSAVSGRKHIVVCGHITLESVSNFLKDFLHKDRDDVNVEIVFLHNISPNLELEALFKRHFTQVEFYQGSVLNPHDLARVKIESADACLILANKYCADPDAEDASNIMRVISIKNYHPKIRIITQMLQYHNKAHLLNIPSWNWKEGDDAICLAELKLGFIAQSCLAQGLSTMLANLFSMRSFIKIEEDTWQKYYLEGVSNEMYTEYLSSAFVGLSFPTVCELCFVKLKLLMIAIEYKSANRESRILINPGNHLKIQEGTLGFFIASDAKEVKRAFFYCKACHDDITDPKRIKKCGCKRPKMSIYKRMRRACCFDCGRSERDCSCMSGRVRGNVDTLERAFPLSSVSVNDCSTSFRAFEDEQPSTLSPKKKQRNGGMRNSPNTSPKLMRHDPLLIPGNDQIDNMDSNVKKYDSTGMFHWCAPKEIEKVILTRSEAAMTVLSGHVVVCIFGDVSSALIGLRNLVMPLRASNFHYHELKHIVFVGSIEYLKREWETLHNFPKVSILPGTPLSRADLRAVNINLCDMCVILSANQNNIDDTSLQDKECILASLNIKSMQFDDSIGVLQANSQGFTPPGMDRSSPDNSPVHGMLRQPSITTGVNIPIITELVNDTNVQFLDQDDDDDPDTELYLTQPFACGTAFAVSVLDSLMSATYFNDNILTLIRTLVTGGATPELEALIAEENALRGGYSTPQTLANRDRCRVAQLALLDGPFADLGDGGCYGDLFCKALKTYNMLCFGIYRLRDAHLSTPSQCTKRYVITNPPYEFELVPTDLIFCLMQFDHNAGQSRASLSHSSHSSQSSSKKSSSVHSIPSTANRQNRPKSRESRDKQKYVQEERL
compound,measurement,setting,value
"O=C(O)c1ccc(Cl)c2c1[nH]c1c3ccc(C(F)(F)F)cc3oc12 [LDD175, 4-chloro-7-trifluoromethyl-10H-benzo[4,5]furo[3,2-b]indole-1-carboxylic acid]",relaxation response,"[1]; 10^−4 M LDD175, denuded endothelium, n=10",41.0±4.9%
same,relaxation response,"[1]; 10^−4 M LDD175, intact endothelium, n=7",45.9±6.2%
same,relaxation response after IbTX pretreatment,"[1]; 10^−4 M LDD175, strips pre-treated with 100 nM IbTX for 30 minutes, n=7",23.6±3.3%
same,"relaxation, % of the phenylephrine (PE)-induced contraction",[1]; 10^−4 M,54.0±3.0% and 54.0±3.1%
same,% relaxation of the phenylephrine-induced contraction,"[1]; 10^−5 M alone, n=7",32.7±3.8%
same,"relaxation, % of the phenylephrine (PE)-induced contraction",[1]; 10^−5 M,26.3±2.0%
same,"relaxation, % of the phenylephrine (PE)-induced contraction",[1]; 10^−6 M,14.5±2.6%
same,"relaxation, % of the phenylephrine (PE)-induced contraction",[1]; 10^−7 M,3.7±1.4%
same,BP fluctuation and hemodynamical instability,[2]; during in vivo cavernous nerve stimulation,not observed
same,area under curve (AUC) of ICP/ABP ratio,[2]; [7],1444.4±133.3
same,maximal ICP,[2]; [7],57.8±6.6 mmHg
same,maximal ICP/ABP ratio,[2]; [7],45.3±5.8%
same,intracavernosal pressure,"[3]; LDD175 5 mg/kg and 10 mg/kg injection groups, 10 mg/kg more effective than 5 mg/kg",significantly increased
same,effect of LDD175 on intracavernosal pressure after BKCa channel inhibitor,"[3]; TEA 30 mg/kg injected, after 10 minutes LDD175 10 mg/kg",completely inhibited
same,relaxation of aortic rings,[4],not relaxed
same,peak current density,"[5]; 0.1 μM, +60 mV, n=10",30.9±6.5 pA/pF
same,peak current density,"[5]; 1 μM, +60 mV, n=10",45.1±8.2 pA/pF
same,peak current density,"[5]; 10 μM, +60 mV, n=10",178.5±30.0 pA/pF
same,peak current density,"[5]; 30 μM, +60 mV, n=10",257.3±48.3 pA/pF
same,"activation of outward rectifying K+ currents (whole-cell), increase vs. control",[5]; 30 μM,952.1%
same,peak current density,"[5]; 30 μM, −40 mV",23.9±5.8 pA/pF
same,"peak current density, fold vs. control","[5]; 30 μM, −40 mV",42.8 fold
same,peak current density,"[5]; 100 μM, +60 mV, n=10",265.5±53.4 pA/pF
same,BP and heart rate changes following intravenous administration,"[6]; 10 mg/kg LDD175, intravenous",did not cause significant changes
same,adverse cardiovascular effects in in vivo animal experiments,"[6]; rat, in vivo",no significant adverse cardiovascular effects
"O=c1[nH]c2cc(C(F)(F)F)ccc2n1-c1cc(C(F)(F)F)ccc1O [NS1619, reference compound]","activation of outward rectifying K+ currents (whole-cell), increase vs. control",[5]; 30 μM,880.0%
same,peak current density,"[5]; 30 μM, −40 mV",1.5±0.6 pA/pF
same,"peak current density, fold vs. control","[5]; 30 μM, −40 mV",1.3 fold
"CC[N+](CC)(CC)CC [TEA, tetraethylammonium, reference compound]",suppression of LDD175-activated K+ currents,[5],78.2%
CCCc1nn(C)c2c(=O)[nH]c(-c3cc(S(=O)(=O)N4CCN(C)CC4)ccc3OCC)nc12 [sildenafil],maximal ICP/ABP ratio,"[3]; 1 mg/kg, n=6",55.4±5.2
same,maximal ICP/ABP ratio,"[3]; 5 mg/kg, n=7",69.9±5.4
"CCCOc1ccc(S(=O)(=O)NCCC2CCCN2C)cc1-c1nc2c(CCC)nn(C)c2c(=O)[nH]1 (stereo not drawn) [udenafil, reference compound]","relaxation, % of the phenylephrine (PE)-induced contraction",[1]; 10^−5 M,67.1±1.7%
same,% relaxation of the phenylephrine-induced contraction,"[1]; 10^−6 M alone, n=7",21.6±2.7%
same,"relaxation, % of the phenylephrine (PE)-induced contraction",[1]; 10^−6 M,34.5±3.9%
same,"effect on maximal ICP, maximal ICP/ABP ratio and AUC of ICP/ABP ratio compared with 10 mg/kg LDD175","[2]; 1 mg/kg udenafil, sub-maximal EFS",no difference
"iberiotoxin (QFTDVDCSVSKECWSVCKDLFGVDRGKCMGKKCRCYQ; UniProt P24663 1-37, looked up) [IbTX, reference compound]",suppression of LDD175-activated K+ currents,"[5]; 100 nM IbTX, n=4",78.1%
